Laboratory results: ChEMBL document CHEMBL6109061, “Discovery of an Ultralong-acting Nondepolarizing Neuromuscular Blocker That Displays Short Onset Time and On-Demand Rapid Reversal by a Biocompatible Antagonist” (J Med Chem, 2025)
Activity calls are given as the source filed them. No cut-off for these calls is given here.

Key:
Rattus norvegicus [1] = test: Neuromuscular block activity in propofol-induced anesthetized Sprague-Dawley rat model assessed as inhibition of twitch by measuring twitch intensity of quadriceps muscle at 0.3 mg/kg, iv administered as bolus dose by TOF watch monitor analysis relative to control; type: functional
Rattus norvegicus [2] = species: Rattus norvegicus; test: Recovery of Pan-induced neuromuscular block in Sprague-Dawley rat assessed as […] ratio (TOFr) <= 25% by measuring recovery time; type: functional
Rattus norvegicus [3] = test: Neuromuscular block activity in propofol-induced anesthetized iv dosed Sprague-Dawley rat model assessed as minimum dose for complete neuromuscular block; type: functional; details: read-out: MED
[4] = Solubility of compound in water; type: physicochemical
Rattus norvegicus [5] = test: Neuromuscular block activity in propofol-induced anesthetized Sprague-Dawley rat model assessed as reduction in twitch inhibition by measuring twitch intensity of quadriceps muscle at 0.3 mg/kg, iv administered as bolus dose by TOF watch monitor analysis; type: functional, organism-based
Rattus norvegicus [6] = test: Neuromuscular block activity in propofol-induced anesthetized Sprague-Dawley rat model assessed as inhibition of twitch by measuring twitch intensity of quadriceps muscle at 0.6 mg/kg, iv administered as bolus dose by TOF watch monitor analysis relative to control; type: functional
Rattus norvegicus [7] = test: Neuromuscular block activity in propofol-induced anesthetized Sprague-Dawley rat model assessed as inhibition of twitch by measuring twitch intensity of quadriceps muscle at 0.04 mg/kg, iv administered as bolus dose by TOF watch monitor analysis relative to control; type: functional
Rattus norvegicus [8] = test: Neuromuscular block activity in propofol-induced anesthetized Sprague-Dawley rat model assessed as recovery time at 0.04 mg/kg, iv; type: functional
Rattus norvegicus [9] = test: Neuromuscular block activity in propofol-induced anesthetized Sprague-Dawley rat model assessed as onset time required for twitch reduction at 0.04 mg/kg, iv; type: functional
Rattus norvegicus [10] = test: Neuromuscular block activity in propofol-induced anesthetized Sprague-Dawley rat model assessed as time duration of 0 to 25 percent recovery indices at 0.04 mg/kg, iv; type: functional
Rattus norvegicus [11] = test: Neuromuscular block activity in propofol-induced anesthetized Sprague-Dawley rat model assessed as inhibition of twitch by measuring twitch intensity of quadriceps muscle at 0.5 mg/kg, iv administered as bolus dose by TOF watch monitor analysis relative to control; type: functional
Rattus norvegicus [12] = test: Neuromuscular block activity in propofol-induced anesthetized Sprague-Dawley rat model assessed as inhibition of twitch by measuring twitch intensity of quadriceps muscle at 5 mg/kg, iv administered as bolus dose by TOF watch monitor analysis relative to control; type: functional
Rattus norvegicus [13] = test: Reversal of IMC-14-induced neuromuscular block in Sprague-Dawley rat model assessed as recovery time at 10 mg/kg, iv measured at 30 sec; type: functional; details: 0.5 min
Rattus norvegicus [14] = test: Reversal of IMC-14-induced neuromuscular block in Sprague-Dawley rat model assessed as recovery time at 20 mg/kg, iv measured at 19 sec; type: functional; details: 19 s
Rattus norvegicus [15] = test: Reversal of IMC-14-induced neuromuscular block in Sprague-Dawley rat model assessed as recovery time at 10 mg/kg, iv measured at 5 hrs; type: functional
[16] = Toxicity in Sprague-Dawley rat at 0.2 mg/kg, iv measured for 5 hrs; type: organism-based; details: in vivo
Rattus norvegicus [17] = test: Reversal of IMC-14-induced neuromuscular block in Sprague-Dawley rat model assessed as recovery time at 10 mg/kg, iv measured at 30 mins; type: functional; details: 0.5 h

| Compound | solubility [4] [mM] | inhibition in vivo at 0.3 mg/kg (Rattus norvegicus [1]) [%] | minimal effective dose (Rattus norvegicus [3]) [mg/kg] | inhibition in vivo at 0.04 mg/kg (Rattus norvegicus [7]) [%] | other results |
| --- | --- | --- | --- | --- | --- |
| [Cl-].[Cl-].[Cl-].[Cl-].c1cc2ccc1Cc1ccc(cc1)C[n+]1ccn(c1)Cc1ccc(o1)Cn1cc[n+](c1)Cc1ccc(cc1)Cc1ccc(cc1)C[n+]1ccn(c1)Cc1ccc(o1)Cn1cc[n+](c1)C2 | ≥ 50 | 0 | 5 |  | Activity (Rattus norvegicus [5]): inactive |
| [Cl-].[Cl-].[Cl-].[Cl-].c1cc2cc(c1)Cn1cc[n+](c1)Cc1ccc(cc1)Cc1ccc(cc1)C[n+]1ccn(c1)Cc1cccc(c1)Cn1cc[n+](c1)Cc1ccc(cc1)Cc1ccc(cc1)C[n+]1ccn(c1)C2 | ≥ 50 | 15 | 2 |  |  |
| c1c[n+]2ccc1CCCc1cc[n+](cc1)Cc1ccc(cc1)Oc1ccc(cc1)C[n+]1ccc(cc1)CCCc1cc[n+](cc1)Cc1ccc(cc1)Oc1ccc(cc1)C2 |  | 38 |  | 0 | inhibition in vivo at 0.6 mg/kg (Rattus norvegicus [6]): 100% |
| CCc1n2cc[n+]1Cc1ccc(cc1)Oc1ccc(cc1)C[n+]1ccn(c1CC)CCCCCn1cc[n+](c1CC)Cc1ccc(cc1)Oc1ccc(cc1)C[n+]1ccn(c1CC)CCCCC2.[Cl-].[Cl-].[Cl-].[Cl-] | ≥ 50 |  |  | 100 | Time (Rattus norvegicus [8]): 13 min; Time (Rattus norvegicus [9]): 222 s |
| [Cl-].[Cl-].[Cl-].[Cl-].c1cc2ccc1Cn1cc[n+](c1)Cc1ccc(cc1)-c1ccc(cc1)C[n+]1ccn(c1)Cc1ccc(cc1)Cn1cc[n+](c1)Cc1ccc(cc1)-c1ccc(cc1)C[n+]1ccn(c1)C2 | ≥ 50 | 3 | 1.2 |  | Time (Rattus norvegicus [2]): 36 min |
| Cc1n2cc[n+]1Cc1cccc(c1)C[n+]1ccn(c1C)CCCn1cc[n+](c1C)Cc1cccc(c1)C[n+]1ccn(c1C)CCC2 |  |  |  | 0 | inhibition in vivo at 0.5 mg/kg (Rattus norvegicus [11]): 11%; inhibition in vivo at 5 mg/kg (Rattus norvegicus [12]): 100% |
| [Cl-].[Cl-].[Cl-].[Cl-].c1ccc2c(c1)n1c[n+]2Cc2ccc(cc2)Oc2ccc(cc2)C[n+]2cn(c3ccccc32)CCCCCn2c[n+](c3ccccc32)Cc2ccc(cc2)Oc2ccc(cc2)C[n+]2cn(c3ccccc32)CCCCC1 | ~0.5 |  |  | 0 | Time (Rattus norvegicus [10]): 27 min |
| [Cl-].[Cl-].[Cl-].[Cl-].c1cc2cc(c1)Cn1cc[n+](c1)Cc1ccc(cc1)Oc1ccc(cc1)C[n+]1ccn(c1)Cc1cccc(c1)Cn1cc[n+](c1)Cc1ccc(cc1)Oc1ccc(cc1)C[n+]1ccn(c1)C2 | ≥ 50 | 100 | 0.16 |  |  |
| Cc1n2cc[n+]1Cc1ccc(cc1)C[n+]1ccn(c1C)CCCn1cc[n+](c1C)Cc1ccc(cc1)C[n+]1ccn(c1C)CCC2 |  |  |  | 0 | inhibition in vivo at 0.5 mg/kg (Rattus norvegicus [11]): 0%; inhibition in vivo at 5 mg/kg (Rattus norvegicus [12]): 100% |
| C[C@]12N3Cc4c(c(OCCCC(=O)[O-])c5ccccc5c4OCCCC(=O)[O-])CN1C(=O)N1CN4C(=O)N5CN6C(=O)N7CN8C(=O)N9Cc%10c(c(OCCCC(=O)[O-])c%11ccccc%11c%10OCCCC(=O)[O-])CN%10C(=O)N(CN%11C(=O)N(CN%12C(=O)N(CN(C3=O)[C@]12C)[C@@H]4[C@H]%125)[C@@H]6[C@H]%117)[C@]8(C)[C@@]9%10C.[Na+].[Na+].[Na+].[Na+] |  |  |  |  | Time (Rattus norvegicus [13]): 54 s; Time (Rattus norvegicus [14]): 30 s; Time (Rattus norvegicus [15]): 12 s; Activity [16]: Non-toxic; Time (Rattus norvegicus [17]): 19 s |
| COC(=O)c1cc2cc(c1)Cn1cc[n+](c1)Cc1ccc(cc1)-c1ccc(cc1)C[n+]1ccn(c1)Cc1cc(cc(C(=O)OC)c1)Cn1cc[n+](c1)Cc1ccc(cc1)-c1ccc(cc1)C[n+]1ccn(c1)C2.[Cl-].[Cl-].[Cl-].[Cl-] | ≥ 50 | 5 | 1.5 |  |  |
| Cc1n2cc[n+]1Cc1ccc(cc1)Oc1ccc(cc1)C[n+]1ccn(c1C)CCCCCCCn1cc[n+](c1C)Cc1ccc(cc1)Oc1ccc(cc1)C[n+]1ccn(c1C)CCCCCCC2.[Cl-].[Cl-].[Cl-].[Cl-] | ≥ 50 |  |  | 100 | Time (Rattus norvegicus [8]): 18 min; Time (Rattus norvegicus [9]): 498 s; Time (Rattus norvegicus [10]): 61 min |
| O=C(O)c1cc2cc(c1)Cn1cc[n+](c1)Cc1ccc(cc1)-c1ccc(cc1)C[n+]1ccn(c1)Cc1cc(cc(C(=O)O)c1)Cn1cc[n+](c1)Cc1ccc(cc1)-c1ccc(cc1)C[n+]1ccn(c1)C2.[Cl-].[Cl-].[Cl-].[Cl-] | ≥ 50 | 0 | 1.2 |  | Activity (Rattus norvegicus [5]): inactive |
| [Cl-].[Cl-].[Cl-].[Cl-].c1cc2ccc1C[n+]1ccn(c1)CCCCCn1cc[n+](c1)Cc1ccc(cc1)Oc1ccc(cc1)C[n+]1ccn(c1)CCCCCn1cc[n+](c1)Cc1ccc(cc1)O2 | ≥ 50 |  |  | 100 | Time (Rattus norvegicus [8]): 31 min; Time (Rattus norvegicus [9]): 138 s; Time (Rattus norvegicus [10]): 41 min |

Now from value to molecule, other results behind:

| solubility [4] [mM] | Compound | inhibition in vivo at 0.3 mg/kg (Rattus norvegicus [1]) [%] | minimal effective dose (Rattus norvegicus [3]) [mg/kg] | inhibition in vivo at 0.04 mg/kg (Rattus norvegicus [7]) [%] | other results |
| --- | --- | --- | --- | --- | --- |
| ≥ 50 | [Cl-].[Cl-].[Cl-].[Cl-].c1cc2ccc1Cn1cc[n+](c1)Cc1ccc(cc1)Oc1ccc(cc1)C[n+]1ccn(c1)Cc1ccc(cc1)Cn1cc[n+](c1)Cc1ccc(cc1)Oc1ccc(cc1)C[n+]1ccn(c1)C2 | 2 | 0.9 |  | Time (Rattus norvegicus [2]): 30 min |
| ≥ 50 | Cc1n2cc[n+]1Cc1ccc(cc1)Oc1ccc(cc1)C[n+]1ccn(c1C)Cc1cccc(c1)Cn1cc[n+](c1C)Cc1ccc(cc1)Oc1ccc(cc1)C[n+]1ccn(c1C)Cc1cccc(c1)C2.[Cl-].[Cl-].[Cl-].[Cl-] | 100 | 0.1 | 54 |  |
| ≥ 50 | [Cl-].[Cl-].[Cl-].[Cl-].c1cc2ccc1Cc1ccc(cc1)C[n+]1ccn(c1)Cc1ccc(cc1)Cn1cc[n+](c1)Cc1ccc(cc1)Cc1ccc(cc1)C[n+]1ccn(c1)Cc1ccc(cc1)Cn1cc[n+](c1)C2 | 17 | 1.8 |  | Time (Rattus norvegicus [2]): 32 min |
| ≥ 50 | Cc1n2cc[n+]1Cc1ccc(cc1)Oc1ccc(cc1)C[n+]1ccn(c1C)CCCCn1cc[n+](c1C)Cc1ccc(cc1)Oc1ccc(cc1)C[n+]1ccn(c1C)CCCC2.[Cl-].[Cl-].[Cl-].[Cl-] |  |  | 100 | Time (Rattus norvegicus [8]): 16 min; Time (Rattus norvegicus [9]): 102 s; Time (Rattus norvegicus [10]): 47 min |
| ≥ 50 | Cc1n2cc[n+]1Cc1ccc(cc1)Oc1ccc(cc1)C[n+]1ccn(c1C)CCCCCn1cc[n+](c1C)Cc1ccc(cc1)Oc1ccc(cc1)C[n+]1ccn(c1C)CCCCC2.[Cl-].[Cl-].[Cl-].[Cl-] |  |  | 58 |  |
| ≥ 50 | [Cl-].[Cl-].[Cl-].[Cl-].c1cc2cc(c1)Cn1cc[n+](c1)Cc1ccc(cc1)-c1ccc(cc1)C[n+]1ccn(c1)Cc1cccc(c1)Cn1cc[n+](c1)Cc1ccc(cc1)-c1ccc(cc1)C[n+]1ccn(c1)C2 | 43 | 0.6 |  |  |
| ≥ 50 | COC(=O)c1cc2cc(c1)Cn1cc[n+](c1)Cc1ccc(cc1)Oc1ccc(cc1)C[n+]1ccn(c1)Cc1cc(cc(C(=O)OC)c1)Cn1cc[n+](c1)Cc1ccc(cc1)Oc1ccc(cc1)C[n+]1ccn(c1)C2.[Cl-].[Cl-].[Cl-].[Cl-] | 50 | 0.6 |  |  |
| ≥ 50 | Cc1n2cc[n+]1Cc1ccc(cc1)Oc1ccc(cc1)C[n+]1ccn(c1C)Cn1cc[n+](c1C)Cc1ccc(cc1)Oc1ccc(cc1)C[n+]1ccn(c1C)C2.[Cl-].[Cl-].[Cl-].[Cl-] |  |  | 63 |  |
| ≥ 50 | O=C(O)c1cc2cc(c1)Cn1cc[n+](c1)Cc1ccc(cc1)Oc1ccc(cc1)C[n+]1ccn(c1)Cc1cc(cc(C(=O)O)c1)Cn1cc[n+](c1)Cc1ccc(cc1)Oc1ccc(cc1)C[n+]1ccn(c1)C2.[Cl-].[Cl-].[Cl-].[Cl-] | 0 | 1 |  | Activity (Rattus norvegicus [5]): inactive |
